Reference: US8227510B2, “Combine use of pterostilbene and quercetin for the production of cancer treatment medicaments” (Universitat de Valencia, priority 2004, dated 2012)

Assay: in vivo
Design: species or system mice
Details: mouse
Source text: The mice (C57BL/6J, male, 6-8 weeks) were from Charles River Spain (Barcelona). The procedures and animal care were based on institutional standards and complied with national and international laws and policies (Directive 86/609, OJ L 358. 1 of the Council of the European Community, of 12 Dec. 1987) and the “Guide for the Care and Use of Laboratory Animals” of the National Institutes of Health (NIH, USA) (NIH Publication No. 85-23, 1985). All the animals were fed according to concentrated laboratory diets (Letica, Barcelona, Spain) allowing them free access to food and submitting them to a cycle of 12 hours of light/12 hours of darkness with ambient temperature of 22° C. The experiments were begun at 10.00 a.m. to minimize the effects of diurnal variations.
For the pharmacokinetic studies and for the daily treatment, the mice were administered i.v. (via the jugular vein, where a permanent catheter had previously been fixed by surgical methods; i.v. administration was carried out slowly for 1 minute), and orally (via stomach tube), 20 mg/kg of t-PTER (dissolved in ethanol 0.5 ml/kg of animal weight) or QUER (dissolved in dimethylsulfoxide:saline, 1:0.5 0.15 ml/kg of weight). In general, the compositions based on a combination of PTER and QUER can contain, as excipients, those stated previously or any others that are pharmaceutically acceptable. The presentation of said compositions can be, non-limitatively, in the form of solids such as tablets, capsules, pellets, pills, etc. and liquid presentations such as drops, syrups, injectables, etc. Moreover, the active principles (PTER and QUER) of the composition can be in their uncombined forms or in the form of pharmaceutically acceptable salts, including esters. The t-PTER was synthesized in our laboratory following standardized reactions of Wittig and Heck (www.orgsyn.org), whereas the QUER was obtained from Sigma Chemical Co. (San Luis, Mo., USA). The ^3H-t-PTER (2.2 Ci/mmol), labeled in the ortho and para positions of the benzene rings, was prepared in our laboratory according to a method similar to that used for the deuteration of phenols (18). ^14C-QUER (50 mCi/mmol), labeled in position 4 of the carbon ring, was obtained from the NCI Radiochemical Carcinogen Repository of Chemsyn Laboratories (Kansas City, Mo., USA). The radioactivity was measured using a Varisette 2700 TR analyzer from Packard. Blood was collected by means of the catheter in 1-ml syringes that contained heparin sodium (0.05 ml of a 5% solution in […]). The plasma and the erythrocytes were separated as described previously (19).
LC-MS/MS was carried out using a Quattro Micro triple quadrupole mass spectrometer (Micromass, Manchester, UK) equipped with an LC-10Advp pump, an SLC-10Avp control system and an SIL-10Advp autoinjector from Shimadzu. The samples were analyzed by reverse-phase high-performance liquid chromatography using a Prodigy ODS column (100×2 mm) from Phenomenex (Torrance, Calif., USA), with a particle size of 3 μm. In all cases, 40 μl was injected into the column. Column temperature was maintained at 25° C. The following gradient system was used, pumped through the column at 0.2 ml/minute (min/% A/% B/% C) (A, methanol; B, 10% acetonitrile and 90% ammonium formate 10 mM pH 3.75; C, ammonium formate 10 mM pH 3.75): 0/5/5/90, 10/5/5/90, 20/5/90/5, 30/100/0/0, 40/5/5/90. The negative ion tandem mass spectra obtained by electrospray were recorded with the electrospray capillary fixed at […] and at a temperature of the source block of 120° C. Nitrogen was used as nebulizer gas and drying gas, with flows of 300 and 30 l/h, respectively. Argon at 1.5×10^−3 mbar was used as the collision gas for collision-induced dissociation. A test was carried out based on LC-MS/MS with tracking of multiple reactions using the transitions m/z 255-240 for PTER and […] for QUER, which in both cases represent favorable fragmentation routes for these deprotonated molecules. […]

| SMILES | half-life (male, C57BL/6J, iv, 20 mg/kg) [min] | time in which plasma concentration decreases to ~1 μM (male, C57BL/6J, iv, 20 mg/kg) [min] | levels in whole blood compared with plasma | PTER measured in plasma or blood in the trans form (male, C57BL/6J) | half-life [min] |
| --- | --- | --- | --- | --- | --- |
| O=c1c(O)c(-c2ccc(O)c(O)c2)oc2cc(O)cc(O)c12 [QUER, quercetin] | ~20.1 | 120 | not significantly different |  |  |
| COc1cc(/C=C/c2ccc(O)cc2)cc(OC)c1 [PTER, pterostilbene] | ~77.9 | 480 | not significantly different | At least 99% |  |
| Oc1ccc(C=Cc2cc(O)cc(O)c2)cc1 [RESV, resveratrol, reference compound] |  |  |  |  | ~10.2 |
